Consider one compound from patent publication US20140084216A1 (Merck Patent GmbH, priority 2011, published 2014).

As a reminder, the melting point is the temperature of the solid-liquid transition. For `C=CC(=O)OCCN(CCOC(=O)C=C)c1ccc(N=Nc2snc(C)c2C#N)c(NC(C)=O)c1` [Example 5, Acrylic acid 2-[{3-acetylamino-4-(4-cyano-3-methylisothiazol-5-ylazo)-phenyl}-{2-acryloyloxyethyl}-amino]-ethyl ester], the melting point was 92 to 94 °C.
